According to patent publication US12275731B2, “Azaindole inhibitors of wild-type and mutant forms of LRRK2” (DANA-FARBER CANCER INSTITUTE, INC., priority 2018, dated 2025):

Legend:
Experiment in all cases: KinomeScan profiling
Assay type in all cases: binding
MARK4 = molecular target: T1, MARK4 (Homo sapiens, UniProt Q96L34); settings: MARK4, 1 μM; read-out: % control
T1 sequence (Q96L34 1-752): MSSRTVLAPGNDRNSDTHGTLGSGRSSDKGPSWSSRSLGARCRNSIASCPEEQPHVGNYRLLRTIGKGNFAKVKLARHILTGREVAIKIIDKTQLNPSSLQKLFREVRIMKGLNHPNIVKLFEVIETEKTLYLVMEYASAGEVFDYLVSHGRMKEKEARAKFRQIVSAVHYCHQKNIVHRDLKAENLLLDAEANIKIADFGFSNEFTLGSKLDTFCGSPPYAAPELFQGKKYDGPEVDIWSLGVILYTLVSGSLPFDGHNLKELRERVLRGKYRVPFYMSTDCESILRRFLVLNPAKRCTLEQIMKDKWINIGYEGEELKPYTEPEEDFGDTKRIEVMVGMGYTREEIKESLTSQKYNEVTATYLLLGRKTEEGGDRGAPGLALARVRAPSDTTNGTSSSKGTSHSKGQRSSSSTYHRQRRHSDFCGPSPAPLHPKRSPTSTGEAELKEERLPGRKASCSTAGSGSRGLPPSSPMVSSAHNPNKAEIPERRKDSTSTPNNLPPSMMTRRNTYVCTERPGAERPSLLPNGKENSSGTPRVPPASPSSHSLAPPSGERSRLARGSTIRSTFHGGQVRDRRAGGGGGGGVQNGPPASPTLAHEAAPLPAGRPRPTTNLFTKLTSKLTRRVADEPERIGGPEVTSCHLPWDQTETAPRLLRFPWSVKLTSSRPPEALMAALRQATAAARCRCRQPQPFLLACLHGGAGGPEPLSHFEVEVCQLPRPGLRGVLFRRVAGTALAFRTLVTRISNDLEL
How it was run: (§1)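 The panel spans 468 kinases, and each inventive compound was applied at 1 μM from DMSO. Lower % control means stronger binding; the activity cut-off is set at less than 35%.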

SIK2 = molecular target: T2, SIK2 (Homo sapiens, UniProt Q9H0K1); settings: SIK2, 1 μM; read-out: % control
T2 construct: purchased KinomeScan® (panel service)
How it was run: as §1

DMPK = molecular target: T3, DMPK (Homo sapiens, UniProt Q09013); settings: read-out: % control
T3 sequence (Q09013 1-629): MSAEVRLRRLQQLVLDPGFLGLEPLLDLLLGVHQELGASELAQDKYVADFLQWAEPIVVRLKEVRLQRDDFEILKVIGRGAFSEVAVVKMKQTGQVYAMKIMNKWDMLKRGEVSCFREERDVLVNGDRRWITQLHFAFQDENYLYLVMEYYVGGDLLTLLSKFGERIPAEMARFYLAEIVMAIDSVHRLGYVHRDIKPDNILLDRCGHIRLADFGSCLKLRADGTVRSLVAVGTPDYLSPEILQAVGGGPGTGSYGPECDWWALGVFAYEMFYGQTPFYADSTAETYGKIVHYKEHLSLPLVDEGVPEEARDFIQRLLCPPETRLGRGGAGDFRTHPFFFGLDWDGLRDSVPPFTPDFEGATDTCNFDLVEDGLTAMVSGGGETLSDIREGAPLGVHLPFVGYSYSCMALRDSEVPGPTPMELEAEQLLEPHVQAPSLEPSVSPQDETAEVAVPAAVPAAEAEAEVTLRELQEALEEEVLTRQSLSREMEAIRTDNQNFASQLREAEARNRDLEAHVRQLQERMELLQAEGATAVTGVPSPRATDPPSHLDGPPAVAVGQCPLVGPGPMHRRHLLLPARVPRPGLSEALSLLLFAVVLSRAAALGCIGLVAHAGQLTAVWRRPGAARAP
How it was run: as §1

MST1R = MST1R (Homo sapiens, UniProt Q04912); settings: read-out: % control
How it was run: as §1

TEC = molecular target: T4, TEC (Homo sapiens, UniProt P42680); settings: read-out: % control
T4 sequence (P42680 1-631): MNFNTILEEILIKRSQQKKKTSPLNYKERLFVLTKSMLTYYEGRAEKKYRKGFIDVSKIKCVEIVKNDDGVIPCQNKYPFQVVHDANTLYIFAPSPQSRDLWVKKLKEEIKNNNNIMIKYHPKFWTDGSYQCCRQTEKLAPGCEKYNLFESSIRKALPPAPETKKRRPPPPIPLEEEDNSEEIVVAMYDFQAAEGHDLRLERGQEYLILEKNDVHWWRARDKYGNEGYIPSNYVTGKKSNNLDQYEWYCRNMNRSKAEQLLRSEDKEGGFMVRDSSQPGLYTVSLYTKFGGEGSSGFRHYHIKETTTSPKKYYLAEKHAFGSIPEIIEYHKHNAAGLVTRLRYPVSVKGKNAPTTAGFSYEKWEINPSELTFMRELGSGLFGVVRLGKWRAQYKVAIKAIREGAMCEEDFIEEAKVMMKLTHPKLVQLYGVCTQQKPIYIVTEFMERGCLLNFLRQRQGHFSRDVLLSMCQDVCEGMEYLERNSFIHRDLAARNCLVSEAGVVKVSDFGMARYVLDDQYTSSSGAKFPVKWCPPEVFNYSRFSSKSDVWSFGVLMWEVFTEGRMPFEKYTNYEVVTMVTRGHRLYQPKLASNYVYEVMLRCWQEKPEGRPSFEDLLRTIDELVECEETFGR
How it was run: as §1

SLK = molecular target: T5, SLK (Homo sapiens, UniProt Q9H2G2); settings: read-out: % control
T5 construct: purchased KinomeScan® (panel service)
How it was run: as §1

TRKA = TRKA (Homo sapiens, UniProt P04629); settings: read-out: % control
How it was run: as §1

T5 sequence (Q9H2G2 whole entry): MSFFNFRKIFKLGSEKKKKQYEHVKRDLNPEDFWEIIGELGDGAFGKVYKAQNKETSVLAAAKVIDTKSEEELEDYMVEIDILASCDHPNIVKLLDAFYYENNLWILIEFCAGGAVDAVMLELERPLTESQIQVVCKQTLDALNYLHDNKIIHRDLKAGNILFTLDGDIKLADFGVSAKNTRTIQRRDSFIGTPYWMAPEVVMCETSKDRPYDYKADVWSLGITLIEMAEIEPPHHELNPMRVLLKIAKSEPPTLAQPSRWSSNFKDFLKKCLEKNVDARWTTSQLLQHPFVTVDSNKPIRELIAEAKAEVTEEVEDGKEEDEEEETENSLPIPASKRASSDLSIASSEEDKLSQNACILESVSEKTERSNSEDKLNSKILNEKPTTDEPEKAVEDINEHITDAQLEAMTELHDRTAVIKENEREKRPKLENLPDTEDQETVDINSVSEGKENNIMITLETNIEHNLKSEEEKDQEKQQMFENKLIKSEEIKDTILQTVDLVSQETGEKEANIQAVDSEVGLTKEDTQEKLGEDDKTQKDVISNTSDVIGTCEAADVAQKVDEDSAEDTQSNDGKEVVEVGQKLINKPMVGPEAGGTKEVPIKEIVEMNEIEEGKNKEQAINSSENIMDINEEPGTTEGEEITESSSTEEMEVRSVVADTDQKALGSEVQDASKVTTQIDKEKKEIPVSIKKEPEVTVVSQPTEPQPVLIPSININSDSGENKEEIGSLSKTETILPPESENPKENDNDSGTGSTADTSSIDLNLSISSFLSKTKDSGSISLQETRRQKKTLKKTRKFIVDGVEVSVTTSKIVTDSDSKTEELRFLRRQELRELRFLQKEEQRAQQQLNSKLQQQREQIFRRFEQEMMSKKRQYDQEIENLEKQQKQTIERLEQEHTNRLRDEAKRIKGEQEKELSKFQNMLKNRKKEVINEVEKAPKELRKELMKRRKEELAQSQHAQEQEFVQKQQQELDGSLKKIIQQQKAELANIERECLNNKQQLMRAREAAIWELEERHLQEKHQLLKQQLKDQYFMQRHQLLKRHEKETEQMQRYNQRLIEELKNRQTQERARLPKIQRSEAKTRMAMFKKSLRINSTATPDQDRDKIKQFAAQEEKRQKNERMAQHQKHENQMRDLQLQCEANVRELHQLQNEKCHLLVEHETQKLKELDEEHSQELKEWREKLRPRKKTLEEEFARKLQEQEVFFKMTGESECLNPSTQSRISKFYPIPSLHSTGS
Chain of TRKA (P04629 33-796): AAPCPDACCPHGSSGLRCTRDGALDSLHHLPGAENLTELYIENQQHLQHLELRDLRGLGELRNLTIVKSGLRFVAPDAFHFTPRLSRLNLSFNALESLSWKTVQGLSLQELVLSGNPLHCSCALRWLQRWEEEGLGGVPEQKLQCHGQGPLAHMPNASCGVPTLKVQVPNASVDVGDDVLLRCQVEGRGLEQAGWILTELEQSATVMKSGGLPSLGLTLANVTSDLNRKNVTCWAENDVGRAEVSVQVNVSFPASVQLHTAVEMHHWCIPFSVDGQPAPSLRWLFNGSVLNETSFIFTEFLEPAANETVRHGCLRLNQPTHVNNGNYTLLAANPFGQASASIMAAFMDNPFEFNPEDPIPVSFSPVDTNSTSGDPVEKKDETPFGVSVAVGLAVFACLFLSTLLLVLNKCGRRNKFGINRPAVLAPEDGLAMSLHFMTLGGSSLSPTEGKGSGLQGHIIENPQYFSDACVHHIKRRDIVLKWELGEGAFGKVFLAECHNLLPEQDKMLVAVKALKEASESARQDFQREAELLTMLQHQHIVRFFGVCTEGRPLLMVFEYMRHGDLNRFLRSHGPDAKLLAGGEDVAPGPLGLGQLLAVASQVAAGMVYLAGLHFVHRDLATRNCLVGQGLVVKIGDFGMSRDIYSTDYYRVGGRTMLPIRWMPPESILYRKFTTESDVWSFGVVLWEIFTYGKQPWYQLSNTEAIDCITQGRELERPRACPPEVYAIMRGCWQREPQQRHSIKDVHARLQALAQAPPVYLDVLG
T2 sequence (Q9H0K1 whole entry): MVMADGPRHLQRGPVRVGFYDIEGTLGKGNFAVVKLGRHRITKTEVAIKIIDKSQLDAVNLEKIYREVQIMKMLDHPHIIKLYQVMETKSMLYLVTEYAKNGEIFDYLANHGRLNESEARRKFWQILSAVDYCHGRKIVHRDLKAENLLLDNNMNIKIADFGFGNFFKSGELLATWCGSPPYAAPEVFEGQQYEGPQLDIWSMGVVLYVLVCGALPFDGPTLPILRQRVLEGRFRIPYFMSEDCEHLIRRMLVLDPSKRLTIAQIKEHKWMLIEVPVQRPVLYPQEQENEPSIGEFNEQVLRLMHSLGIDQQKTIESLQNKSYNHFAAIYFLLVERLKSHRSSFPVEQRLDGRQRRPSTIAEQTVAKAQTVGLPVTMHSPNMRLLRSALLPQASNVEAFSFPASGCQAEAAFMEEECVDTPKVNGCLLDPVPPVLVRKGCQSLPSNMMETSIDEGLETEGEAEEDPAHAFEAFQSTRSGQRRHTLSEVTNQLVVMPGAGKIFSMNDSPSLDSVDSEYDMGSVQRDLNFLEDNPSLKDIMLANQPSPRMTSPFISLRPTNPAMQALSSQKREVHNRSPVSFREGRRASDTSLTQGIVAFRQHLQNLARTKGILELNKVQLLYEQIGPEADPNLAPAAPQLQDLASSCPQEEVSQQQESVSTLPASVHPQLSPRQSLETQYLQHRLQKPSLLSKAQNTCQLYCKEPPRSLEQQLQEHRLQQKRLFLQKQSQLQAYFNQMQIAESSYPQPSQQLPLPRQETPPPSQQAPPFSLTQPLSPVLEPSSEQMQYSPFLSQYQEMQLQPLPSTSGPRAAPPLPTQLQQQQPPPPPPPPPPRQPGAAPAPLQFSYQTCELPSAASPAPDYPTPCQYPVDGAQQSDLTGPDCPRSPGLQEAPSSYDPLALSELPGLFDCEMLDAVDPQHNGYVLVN
Chain of MST1R (Q04912 25-1400): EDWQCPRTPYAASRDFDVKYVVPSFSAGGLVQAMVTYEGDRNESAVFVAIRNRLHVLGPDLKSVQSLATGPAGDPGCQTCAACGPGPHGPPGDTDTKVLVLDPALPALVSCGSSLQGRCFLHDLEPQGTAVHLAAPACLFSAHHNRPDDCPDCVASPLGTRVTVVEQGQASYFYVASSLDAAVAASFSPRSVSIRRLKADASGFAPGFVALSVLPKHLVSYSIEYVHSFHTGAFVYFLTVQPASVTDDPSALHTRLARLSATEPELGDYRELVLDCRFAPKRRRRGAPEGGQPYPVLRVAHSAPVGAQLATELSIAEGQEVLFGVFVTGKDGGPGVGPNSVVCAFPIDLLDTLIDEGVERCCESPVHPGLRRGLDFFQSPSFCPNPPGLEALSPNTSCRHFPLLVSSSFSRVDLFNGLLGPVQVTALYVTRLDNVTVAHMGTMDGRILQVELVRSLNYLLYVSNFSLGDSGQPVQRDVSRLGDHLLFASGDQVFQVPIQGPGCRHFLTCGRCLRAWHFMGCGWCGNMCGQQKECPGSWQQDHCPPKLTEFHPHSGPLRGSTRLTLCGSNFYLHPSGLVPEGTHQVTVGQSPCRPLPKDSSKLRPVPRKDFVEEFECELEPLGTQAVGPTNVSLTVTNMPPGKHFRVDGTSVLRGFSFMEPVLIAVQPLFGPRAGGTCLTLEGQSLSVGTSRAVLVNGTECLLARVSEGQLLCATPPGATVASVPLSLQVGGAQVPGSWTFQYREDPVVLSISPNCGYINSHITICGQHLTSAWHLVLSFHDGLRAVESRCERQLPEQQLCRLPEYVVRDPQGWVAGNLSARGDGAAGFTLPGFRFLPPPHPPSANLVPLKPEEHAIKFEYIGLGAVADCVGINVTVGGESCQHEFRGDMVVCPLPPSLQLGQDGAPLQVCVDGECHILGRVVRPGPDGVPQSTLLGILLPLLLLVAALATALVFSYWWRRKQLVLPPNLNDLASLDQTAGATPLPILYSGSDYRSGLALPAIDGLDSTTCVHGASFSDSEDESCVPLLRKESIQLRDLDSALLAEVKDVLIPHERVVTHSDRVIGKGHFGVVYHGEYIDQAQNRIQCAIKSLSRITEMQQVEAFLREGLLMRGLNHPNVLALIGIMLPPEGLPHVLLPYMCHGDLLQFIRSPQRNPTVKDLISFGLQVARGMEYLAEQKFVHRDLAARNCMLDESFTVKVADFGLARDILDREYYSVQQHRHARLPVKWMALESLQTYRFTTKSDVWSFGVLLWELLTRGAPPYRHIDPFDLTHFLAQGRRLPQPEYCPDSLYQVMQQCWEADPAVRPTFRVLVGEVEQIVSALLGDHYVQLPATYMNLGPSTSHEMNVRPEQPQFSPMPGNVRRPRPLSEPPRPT

SMILES | remaining binding at 1 µM (MARK4) [%] | remaining binding at 1 µM (SIK2) [%] | remaining binding at 1 µM (DMPK) [%] | remaining binding at 1 µM (MST1R) [%] | remaining binding at 1 µM (TEC) [%] | remaining binding at 1 µM (SLK) [%] | remaining binding at 1 µM (TRKA) [%]
O=C(c1ccc(-c2cnc3[nH]cc(Cl)c3c2NC2CCCC2)cc1)N1CCC(N2CCOCC2)CC1 [Compound 101, (4-(3-chloro-4-(cyclopentylamino)-1H-pyrrolo[2,3-b]pyridin-5-yl)phenyl)(4-morpholinopiperidin-1-yl)methanone] | 82 | 84 | 52 | 77 | 93 | 78 | 49
CNc1c(-c2cnn([C@H]3CCN(C(C)=O)C[C@@H]3F)c2)cnc2[nH]cc(Cl)c12 [Compound 77, 1-((3S,4S)-4-(4-(3-chloro-4-(methylamino)-1H-pyrrolo[2,3-b]pyridin-5-yl)-1H-pyrazol-1-yl)-3-fluoropiperidin-1-yl)ethan-1-one] | 36 | 100 | 36 | 100 | 100 | 86 | 0.65
CNc1c(-c2ccc(C(=O)N3CCC(N4CCOCC4)CC3)cc2)cnc2[nH]cc(Cl)c12 [Compound 96, (4-(3-chloro-4-(methylamino)-1H-pyrrolo[2,3-b]pyridin-5-yl)phenyl)(4-morpholinopiperidin-1-yl)methanone] | 38 | 85 | 36 | 88 | 100 | 68 | 11
